Assay: Inhibition of VEGFR2 in HUVEC assessed as reduction of VGF-stimulated cell proliferation after 5 days

For `CN(c1ccc(F)c(NC(=O)c2cccc(OC(C)(C)C#N)c2Cl)c1)c1ccc2nc(NC(=O)C3CC3)sc2n1`, the IC50 was 1.2 nM.

— BindingDB's records for doi:10.1016/j.bmc.2012.07.032 (Takeda Pharmaceutical, 2012)
